Measured values from patent US20070292440A1, “CD154 blockade therapy for pancreatic islet tissue transplantation” (priority 1997, published 2007).
Values joined by “and” are separate entries in the source; they are usually repeats but may differ in a detail not shown here. Equal entries are not always repeated.

Key:
[1] = tested on: islet allografts in pancreatectomized baboons; assay: Baboon model of islet cell transplantation (ICT) for pancreatectomy-induced diabetes; format: in vivo, Baboon (Papio hamadryas)
Protocol: Identification of donor-recipient pairs. Peripheral blood mononuclear cells (PBMC) from 10 potential recipients (Baboons, Papio hamadryas, male and female, 1-2 years of age, approximately 4.0 kg) from the Mannheimer facility (Homestead, Fla.) were used as responders against PBMC from 11 male donors (over 2 years of age, purchased from the Southwest Foundation in Texas) in a one way mixed leukocyte culture (MLC). The baboon MLC was performed via standardized methods for human MLC. […] The donors were of a sufficient size that enough islets and bone marrow were obtained from 1 donor to allow for transplantation into 2 recipients. […] An attempt was made to choose two recipients with similar MLC reactivity to the designated donor, and donor-recipient pairs with varying degrees of alloreactivity were chosen.
Islet/bone marrow preparation and administration.
For studies on enhancing tolerance, vertebral body was harvested from the pancreas donor and processed to obtain donor bone marrow cells (DBMC) generally according to routine modifications of methods for processing of human vertebral bodies. For recipients of donor bone marrow, infusions were administered on days 5 and II post ICT. A total dose of 10^9 nucleated cells per kg recipient body weight was given.
Pancreatectomy and ICT. […] The number of IEQ was determined immediately prior to transplantation. Total pancreatectomy was performed according to established surgical techniques. After completion of the total pancreatectomy, a 20G angiocatheter was inserted into one of the mesenteric vessel tributaries of the portal vein, and ICT was accomplished by gravity infusion of the islet preparation over a 10 min period.
Immunosuppression and post-operative care. FK506 (tacrolimus) was chosen as the immunosuppressant, as this drug is currently utilized in human ICT. FK506 administration commenced at 5 days prior to ICT. A dosage of 0.1 mg/kg/day, i.m. was administered to recipient baboons. Drug levels were monitored daily and dosage was adjusted to maintain trough levels of approximately 15 ng/ml.
For the first post-operative day (study day 1, or POD 1), the baboons were given intravenous fluids. The animals were subsequently fed a diet containing 60 g of carbohydrate per day, with 45 g of monkey biscuits (supplemented with viokase) and 15 g of fruit.
Monitoring. Fasting and post-prandial blood glucose (FG and PPG, respectively) were monitored via heel stick and blood testing with a Glucometer Elite, and at least once weekly, a blood sample was drawn to obtain plasma for testing of FG levels with a Beckman glucose analyzer. In general a blood sample was also obtained to confirm unusually high readings. […] At approximately 3 months post-transplant, testing was decreased to every other week. The blood samples were used for phenotyping of peripheral blood to assess leukocyte subsets and determination of CBC and chemistries, 5c8 and anti-5c8 levels, insulin and C-peptide levels, and chimerism. Blood was drawn periodically for retesting of MLC reactivity to donor and 3rd party antigens.

[2] = tested on: islet allograft function (glucose metabolism) in baboons; assay: Intravenous glucose tolerance testing (IVGTT) of baboon islet allograft recipients; format: in vivo, Baboon (Papio hamadryas)
Protocol: Intravenous Glucose Tolerance Testing (IVGTT). It has been previously shown that in vivo islet-cell function tests give an accurate reflection of changes in β cell mass. (McCulloch et al., Diabetes 40: 673-679, 1991). Intravenous glucose tolerance tests were carried out after a 16- to 18-h overnight fast, as previously described (Lehmann et al., J. Med. Primatol. 26: 312-321, 1997). In brief, blood samples were collected at −10, −5, and 0 min. Then 0.5 g glucose per kg of body weight in a 50% glucose solution was injected over 20 seconds into the saphenous vein. 1.5 ml samples were collected from the contralateral femoral artery at 1, 3, 5, 7, 10, 15, 20, 25, 30 min post injection. Thus, a total of 12 blood samples were withdrawn over a […] period. The samples were drawn into glass tubes containing 0.05 ml 15% fluid EDTA and 0.2 ml trasylol (500 K.I.U. aprotinin/ml blood), placed on ice, and centrifuged within 10 minn. Plasma was then frozen at −80° C. and assayed later for glucose, immunoreactive insulin, and glucagon.
Statistical analysis and calculations. Results are set forth as means ±SEM. The glucose disappearance constant (Kg) was calculated from the IVGTT as the slope of the decline of the loge (In) plasma glucose between 10 and 30 min. after the glucose injection, multiplied by 100. The acute insulin response to glucose (AIRG) was calculated as the incremental area under the insulin curve (AUC) between 1-10 min after the IV glucose injection. The incremental responses (AUCGlucose, AUCInsulin) were calculated by means of the trapezoidal rule with subtraction of the basal values from 1 to 30 minutes, Data were analyzed with Statistica for Windows software (Version 5.0, 1997. Statsoft Inc., Tulsa, Okla., USA).

[3] = tested on: islet allografts in pancreatectomized diabetic rhesus monkeys; assay: Rhesus monkey model of ICT for pancreatectomy-induced diabetes; format: in vivo; details: induction days -1, 0, 3, 10 + monthly maintenance, monotherapy
Protocol: Unless specified, all procedures were generally as described above for the baboon model studies.
Animal procedures. SPF rhesus monkeys, 2-7 years of age, are readily available from COVANCE (Alice, Tex.) or the Mannheimer Foundation, Inc. (Homestead, Fla.) or similar vendors. Upon admission, all monkeys are examined to determine their general health, physical condition, and psychological status. All surgical procedures are carried under aseptic conditions. Animals are fasted for 12-18 hours before surgery and will be pre-anesthetized with i.m. ketamine (10 mg/kg) and atropine (0.04 mg/kg). Once the animal is sedated, an endotracheal tube and an i.v. catheter are promptly installed. The endotracheal tube is used to protect the airway and provide easy access for emergency drugs. The animals are anesthetized with an isoflurane and oxygen combination. Normal saline solution for injection is infused through the catheter throughout the entire ICT procedure at a rate of 10 ml/kg/hour.
A midline incision is made to gain access to the abdominal organs. For both donor and recipient animals, a total pancreatectomy is performed with preservation of the duodenum. […]
Monitoring. […] Fasting blood glucose (FG) levels are determined by using a lancet to prick the heel, to obtain a small drop of blood for placement on a glucometer strip. […]

Row | Molecule | day of islet allograft rejection ([1]; Baboon, FK506 alone) [day] | day of islet allograft rejection ([1]; Baboon, FK506 in combination with stem cell selected marrow) [day] | day of islet allograft rejection ([1]; Baboon, FK506 in combination with whole bone marrow) [day] | adverse effect on insulin secretion or overall insulin sensitivity ([2]; baboon studies) | FPIS (first phase insulin secretion) after islet transplantation ([2]; baboons on maintenance therapy, follow-up 16 weeks) | Kg values (glucose disappearance constant) in repeated IVGTT ([2]; baboons treated at the time of rejection, after 8 postoperative weeks) | Kg values (glucose disappearance constant) in repeated IVGTT ([2]; baboons treated with maintenance doses) | islet allograft survival versus control or FK506 treated animals ([1]; 4 out of 5 baboons) | Duration (in PODs) of Insulin Independence ([1]; Baboon, Induction + Anti-Rejection regimen, animal received a reduced dose of 5c8) [PODs] | POD until which graft was maintained after treatment for rejection ([1]; Baboon, induction 20 mg/kg days -1, 3, 10 + monthly maintenance from POD 28, bone marrow infusions PODs 5 and 11, listed as 5C8) | graft survival of functioning islet allografts ([1]; Baboon, other animals in the study, range of survivals, listed as hu5c8) | islet allograft function and rejection episodes [3]
1 | C=CC[C@@H]1/C=C(\C)C[C@H](C)C[C@H](OC)[C@H]2O[C@@](O)(C(=O)C(=O)N3CCCC[C@H]3C(=O)O[C@H](/C(C)=C/[C@@H]3CC[C@@H](O)[C@H](OC)C3)[C@H](C)[C@@H](O)CC1=O)[C@H](C)C[C@@H]2OC [FK506, tacrolimus, reference compound] | 10 | 10 | 8 | – | – | – | – | – | – | – | – | –
2 | Anti-CD154: humanized MAb having the antigen-specific binding properties of MAb 5c8; CD154 (CD40L) blocking agent | – | – | – | no adverse effect | well preserved | decline | Stable values | extended islet allograft survival | 8 | 162 POD and 124 POD | > 125 days and > 220 days | functional islet allografts are maintained without the occurrence of rejection episodes
